The results in this text go back to US6740640B2, “Sulfofucosylacylglycerol derivatives and administration thereof as medicaments” (Toyo Suisan Kaisha, Ltd., priority 1999, dated 2004).

Structures can show the parent of a compound that is named as a salt.

Experiment [1] addresses T1, DNA polymerase α (Bos taurus, UniProt A0AAA9TD94).
T1 construct: from tissue; host or cells: bovine thymus
T1 sequence (A0AAA9TD94 1-1441): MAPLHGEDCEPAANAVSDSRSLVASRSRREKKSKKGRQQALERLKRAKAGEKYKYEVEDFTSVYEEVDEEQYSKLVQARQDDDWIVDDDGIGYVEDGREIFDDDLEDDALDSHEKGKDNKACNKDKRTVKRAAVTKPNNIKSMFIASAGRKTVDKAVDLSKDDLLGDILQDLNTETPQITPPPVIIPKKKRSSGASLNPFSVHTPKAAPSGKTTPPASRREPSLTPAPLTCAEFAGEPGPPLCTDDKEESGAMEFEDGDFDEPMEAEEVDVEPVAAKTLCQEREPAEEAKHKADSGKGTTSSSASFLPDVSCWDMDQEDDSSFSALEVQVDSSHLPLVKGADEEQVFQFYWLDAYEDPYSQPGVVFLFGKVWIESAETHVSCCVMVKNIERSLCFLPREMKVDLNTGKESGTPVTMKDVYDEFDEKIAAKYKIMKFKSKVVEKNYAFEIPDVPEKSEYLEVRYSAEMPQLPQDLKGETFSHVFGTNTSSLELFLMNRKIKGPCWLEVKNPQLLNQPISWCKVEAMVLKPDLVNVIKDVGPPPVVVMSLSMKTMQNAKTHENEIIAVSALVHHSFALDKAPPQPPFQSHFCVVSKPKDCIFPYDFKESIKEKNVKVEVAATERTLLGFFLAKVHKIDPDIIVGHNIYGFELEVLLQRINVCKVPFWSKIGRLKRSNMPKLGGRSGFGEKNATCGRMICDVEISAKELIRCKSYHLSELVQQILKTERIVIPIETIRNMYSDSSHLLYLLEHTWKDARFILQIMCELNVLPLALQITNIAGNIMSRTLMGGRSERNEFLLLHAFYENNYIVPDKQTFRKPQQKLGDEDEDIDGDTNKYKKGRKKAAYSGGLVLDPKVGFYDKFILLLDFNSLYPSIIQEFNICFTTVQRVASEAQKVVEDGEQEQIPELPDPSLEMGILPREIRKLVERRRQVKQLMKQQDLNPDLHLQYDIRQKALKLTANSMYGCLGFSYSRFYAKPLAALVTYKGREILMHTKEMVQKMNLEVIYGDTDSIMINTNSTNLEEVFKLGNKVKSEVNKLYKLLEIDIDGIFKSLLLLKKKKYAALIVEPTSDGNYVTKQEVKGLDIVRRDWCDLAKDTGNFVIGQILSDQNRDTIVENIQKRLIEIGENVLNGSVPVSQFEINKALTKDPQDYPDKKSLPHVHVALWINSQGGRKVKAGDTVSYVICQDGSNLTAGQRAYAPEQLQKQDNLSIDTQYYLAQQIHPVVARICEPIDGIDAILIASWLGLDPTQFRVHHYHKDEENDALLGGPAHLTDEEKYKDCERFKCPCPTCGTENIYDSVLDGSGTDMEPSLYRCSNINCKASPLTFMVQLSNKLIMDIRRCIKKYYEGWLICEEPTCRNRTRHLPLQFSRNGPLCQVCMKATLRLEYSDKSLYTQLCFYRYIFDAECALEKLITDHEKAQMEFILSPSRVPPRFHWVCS
As to the kind of experiment: Inhibitory effect against DNA polymerase α ([3H]-dTTP incorporation). It is filed as biochemical. The conditions noted are these: DNA polymerase α from bovine thymus, 0.05 U, 37° C. for 60 minutes. The procedure:
An assay on inhibitory effect against a DNA polymerase α was carried out in the following manner.
Each mixture was added with a buffer containing inorganic salts for the enzymatic reaction, [^3H]-labeled dTTP and compounds for reaction containing a template DNA strand, and incubated at 37° C. for 60 minutes.
After the enzymatic reaction was quenched, the resultant reaction product was fixed on a dedicated filter and subjected to measurement by a liquid scintillation counter. The amount of enzymatically incorporated dTTP was calculated as a radiation dose (cpm) of [^3H]. Note that, each of the sulfofucosylacylglycerol derivatives is a mixture of the S- and R-configurations with respect to an absolute configuration of the carbon of the 2-position of the glycerol moiety.
The results are shown as IC50 in Table 1 below.

Experiment [2] relates to Colon cancer cells DLD-1. The experiment is described as follows: Anticancer activity against cultured colon cancer cells (MTT assay). It is filed as cell-based. The following applies: Homo sapiens, DLD-1, 48 hour cultivation. As to the method: An assay on anticancer activity against cultured colon cancer cells was carried out in the following manner.
(§1) Colon cancer cells DLD-1 were maintained and subcultured in RPMI 1640 medium (containing 10% calf serum). Each of the test compounds (SFAG1 to SFAG3 shown in Table 1) was suspended and diluted in the medium, and then the cancer cells were cultivated together with the medium in a 96-well plate at 3×10^3 cells/well. After 48 hour cultivation, the MTT assay (Mosmann, T: Journal of Immunological Method, 65, 55-63 (1983)) was carried out to compare survival rates.
The results are shown as IC50 in Table 2 below.
For orientation: Tetrazolium assays rely on reduction of a dye to a coloured formazan, in cell work by metabolically active cells.

In experiment [3] the test system is gastric cancer cells NUGC-3. As to the kind of experiment: Anticancer activity against cultured gastric cancer cells (MTT assay). The conditions noted are these: Homo sapiens, NUGC-3, 48 hour cultivation. The class given is cell-based. As to the method: as §1
An assay on anticancer activity against cultured gastric cancer cells was carried out in the same manner as in the Assay 2 except that gastric cancer cells NUGC-3 were used instead of the colon cancer cells DLD-1.
The results are shown as IC50 in Table 3 below.

As usually defined, the IC50 is the concentration that inhibits the measured activity by half. Consider `CCCCCCCCCCCCCCCC(=O)OCC(CO[C@H]1O[C@H](CS(=O)(=O)O)[C@H](O)[C@H](O)[C@H]1O)OC(=O)CCCCCCCCCCCCCCC` (stereo partly drawn) [SFAG5, 3-O-(6-deoxy-6-sulfo-α-D-galactopyranosyl)-1,2-di-O-palmitoyl-glycerol sodium salt], for which, in experiment [1], the IC50 was 0.551 µM.

`CCCCCCCCCCCCCCCC(=O)OCC(O)CO[C@H]1O[C@H](CS(=O)(=O)[O-])[C@H](O)[C@H](O)[C@H]1O.[Na+]` (stereo partly drawn) [SFAG2, 3-O-(6-deoxy-6-sulfo-α-D-galactopyranosyl)-1-O-palmitoyl-glycerol sodium salt]: the results for the IC50 in experiment [2], in experiment [3] and in experiment [1] were 41.5 µg/mL, 41.7 µg/mL and 8.64 µM, respectively.

The compound `CCCCCCCCCCCCCCCCCC(=O)OCC(CO[C@H]1O[C@H](CS(=O)(=O)O)[C@H](O)[C@H](O)[C@H]1O)OC(=O)CCCCCCCCCCCCCCCCC` (stereo partly drawn) [SFAG6, 3-O-(6-deoxy-6-sulfo-α-D-galactopyranosyl)-1,2-di-O-stearoyl-glycerol sodium salt] showed an IC50 in experiment [1] of 0.458 µM.

In the case of `CCCCCCCCCCCCCC(=O)OCC(CO[C@H]1O[C@H](CS(=O)(=O)O)[C@H](O)[C@H](O)[C@H]1O)OC(=O)CCCCCCCCCCCCC` (stereo partly drawn) [SFAG4, 3-O-(6-deoxy-6-sulfo-α-D-galactopyranosyl)-1,2-di-O-myristoyl-glycerol sodium salt], in experiment [1], the midpoint of inhibition, the IC50, lay at 0.657 µM.

Consider `CCCCCCCCCCCCCCCCCC(=O)OCC(O)CO[C@H]1O[C@H](CS(=O)(=O)[O-])[C@H](O)[C@H](O)[C@H]1O.[Na+]` (stereo partly drawn) [SFAG3, 3-O-(6-deoxy-6-sulfo-α-D-galactopyranosyl)-1-O-stearoyl-glycerol sodium salt], for which the IC50 in experiment [2] was 27.5 µg/mL; in experiment [3] it was 30.3 µg/mL; in experiment [1], 8.24 µM.

For `CCCCCCCCCCCCCC(=O)OCC(O)CO[C@H]1O[C@H](CS(=O)(=O)[O-])[C@H](O)[C@H](O)[C@H]1O.[Na+]` (stereo partly drawn) [SFAG1, 3-O-(6-deoxy-6-sulfo-α-D-galactopyranosyl)-1-O-myristoyl-glycerol sodium salt], the half-maximal inhibitory concentration (IC50) is 44 µg/mL in experiment [2], 44.3 µg/mL in experiment [3] and 7.63 µM in experiment [1].
